Source: patent publication US11396496B2, “1,4-substituted isoquinoline inhibitors of KEAP1/NRF2 protein-protein interaction” (THE BOARD OF TRUSTEES OF THE UNIVERSITY OF ILLINOIS, priority 2018, dated 2022)

Tests used:
[1] = Microsomal stability study; type: in vitro ADME; settings: human liver microsomes in buffer, 20 min
Source text: LC-MS grade acetonitrile (MeCN), methanol (MeOH), formic acid, and biology grade DMSO were purchased from Fisher Scientific (Pittsburgh, Pa.). LC-MS grade water was generated using a Barnstead Nanopure Diamond water system (Thermo Scientific, Pittsburgh, Pa.). All other reagents, if not specified, were purchased from Sigma-Aldrich (Saint Louis, Mo.). Pooled human liver microsomes and mouse liver microsomes were purchased from Sekisui XenoTech (Kansas City, Kans.). Preparation of Standard. The initial stock solutions of test compounds were prepared in DMSO at 10 mM, and then diluted with MeOH to 200 μM before use. All stock solutions were stored at −20° C. Liver microsomes were aliquoted upon arrival and stored at −80° C. Samples were analyzed on a Shimadzu 8040 triple-quadrupole mass spectrometer (Shimadzu, Addison, Ill.) equipped with electrospray ion source and Shimadzu Nexera XR UHPLC system. Mobile phase A contained water with 0.025% (v/v) FA, and mobile phase B consisted of MeCN with 0.1% (v/v) FA. Five microliters of sample was injected. Study compounds were eluted on a Kinetex C18 column (3.0×50 mm, 2.6 μm; Phenomenex, Torrance, Calif.) at 500 μL/min using a gradient program: mobile phase B started and maintained at 15% for 1 min, then increased to 95% in 4 min. Nebulizing gas flow and drying gas flow were set to 2 and 15 L/min. DL temperature, heat block temperature, and ion spray voltage were maintained at 300° C., 450° C. and 4500 V, respectively.

Kelch domain of KEAP1 = Kelch domain of KEAP1 (Homo sapiens (Human), UniProt Q14145); assay: Fluorescence anisotropy assay of KEAP1-NRF2 interaction inhibition; type: binding; settings: for binding affinity (in words): qualitative statement on the fluorescence anisotropy results
Method: The IC50 of the compounds for inhibiting the interaction of a fluorescent NRF2 peptide and the Kelch domain of KEAP1 was determined using fluorescence anisotropy. See Inoyama et al., J. Biomol.
Test compounds' ability to inhibit the KEAP1-NRF2 interaction were assayed using the Kelch domain of KEAP1 and a fluorescein-labeled 9-mer peptide containing the ETGE motif of the Neh2 domain of NRF2. The experiments were performed in triplicate, and sigmoidal concentration-response curves were fitted to the data using Graphpad Prism 6.1 software.

[2] = Log D7.4 (1-octanol / HEPES buffer pH 7.4); type: physicochemical; settings: HEPES buffer pH 7.4 / 1-octanol, mean of triplicate; for logD at 1 h: 1-octanol / HEPES buffer
Method: This solution was diluted to nine known concentration solutions (1200, 800, 400, 120, 80, 40, 12, 8, and 4 μM) in MeCN. Each solution was analyzed by HPLC, and a calibration curve was plotted using the peak areas from the standard concentrations. 20 μL of the 10 mM DMSO stock solution of each compound was partitioned between […] of buffer (200 mM HEPES, 150 mM NaCl, pH 7.4) and […] of 1-octanol. The mixture was mixed for 1 h. Each layer was injected separately onto a Shimadzu LC-20AB HPLC system (Solvent system: gradient from 15% MeCN/85% H2O to 95% MeCN/5% H2O (+0.1% formic acid) over 13 min; Column, Shimadzu C18, […], 50×4.6 mm; UV, 254 nm). The equilibrium solubility in the buffer layer and the 1-octanol layer of test compounds was determined by quantifying the concentration of test solutions against the calibration curve. Experiments were run in triplicate, and results were tabulated and reported as mean. […] Thus, including an electron withdrawing group at position R^4 results in improved pharmacokinetics, such as an improved ability to cross cell membranes.

[3] = tested on: NADPH quinone oxidoreductase (NQO1); assay: NRF2 target gene activation: NQO1 protein levels by Western Blot in HaCaT keratinocytes; type: cell-based, human; settings: HaCaT cells, 10 μM compound, 6 h
Method: (§1) Molecules that block the degradatior of NRF2 serve as NRF2 activators. This has the effect of stabilizing NRF2 protein levels and upregulating target gene levels, such as NQO1. […] CDDO is a positive control compound that activates NRF2 through an electrophilic mechanism. […] HaCat Cells were treated with 10 μM compound unless otherwise indicated.
(§2) Spontaneously immortalized human keratinocytes (HaCaT cell line) were grown in Dubecco's modified Eagle's medium (DMEM) with 10% fetal bovine serum and 1% antibiotics. […] Cells were lysed in a 20 mM Tris (pH 7.5) buffer containing 150 mM NaCl, 1 mM EDTA, 1 mM EGTA, 1% Triton X-100, 2.5 mM sodium pyrophosphate, 1 mM Na3VO4, 5 mM β-glycerophosphate, and 1 μg/mL leupeptin. Equal amount of protein (˜40 μg) was separated on a 10% SDS-PAGE, blotted on the membrane, and probed with antiNRF2, or anti-NQO1 antibody. […] CDDO is a positive control compound that activates NRF2 through an electrophilic mechanism.

NRF2 = NRF2 stabilization by Western Blot in HaCaT keratinocytes; type: cell-based, human; settings: HaCaT cells, 10 μM compound, 6 h, relative to vehicle (DMSO) control
Method: as §1, §2

[4] = fluorescent NRF2 peptide and Kelch domain of KEAP1, fluorescence anisotropy

Sequence of Kelch domain of KEAP1 (Q14145 321-609): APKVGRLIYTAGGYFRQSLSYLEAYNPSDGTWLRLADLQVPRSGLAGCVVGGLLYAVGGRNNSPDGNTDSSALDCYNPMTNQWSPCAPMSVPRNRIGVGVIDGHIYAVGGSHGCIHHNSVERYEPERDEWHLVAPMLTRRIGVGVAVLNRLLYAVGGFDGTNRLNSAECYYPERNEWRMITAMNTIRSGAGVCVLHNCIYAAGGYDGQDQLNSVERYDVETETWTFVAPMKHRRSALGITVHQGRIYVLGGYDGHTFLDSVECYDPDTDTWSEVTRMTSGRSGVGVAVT

| Compound | IC50 (Kelch domain of KEAP1; [4]) | IC50 (Kelch domain of KEAP1; Table C, unit inferred) | other results |
| --- | --- | --- | --- |
| COc1ccc(S(=O)(=O)Nc2ccc(/C=C/C(=O)O)c3ccccc23)cc1 [Compound C9, (E)-3-(4-((4-methoxyphenyl)sulfonamido)naphthalen-1-yl)acrylic acid] | 9.3 µM | 9.3 µM | – |
| COc1ccc(CCc2ccc(NS(=O)(=O)c3ccc(OC)cc3)c3ccccc23)cc1 [Compound C13, 4-methoxy-N-(4-(4-methoxyphenethyl)naphthalen-1-yl)benzenesulfonamide] | > 25 µM | > 25 µM | – |
| COc1ccc(S(=O)(=O)Nc2cnc(N3CC[C@H](c4ccccc4)C3)c3ccccc23)cc1 [Compound C8, (R)-4-methoxy-N-(1-(3-phenylpyrrolidin-1-yl)isoquinolin-4-yl)benzenesulfonamide] | > 25 µM | > 25 µM | – |
| COc1ccc(S(=O)(=O)Nc2cnc(N3CC[C@@H](c4ccccc4)C3)c3ccccc23)cc1 [Compound C7, (S)-4-methoxy-N-(1-(3-phenylpyrrolidin-1-yl)isoquinolin-4-yl)benzenesulfonamide] | > 25 µM | > 25 µM | – |
| COc1ccc(S(=O)(=O)Nc2ccc(CCC(=O)O)c3ccccc23)cc1 [Compound C11, 3-(4-((4-methoxyphenyl)sulfonamido)naphthalen-1-yl)propanoic acid] | 6 µM | 6 µM | – |
| COc1ccc(S(=O)(=O)N(CC(=O)O)c2cnc(N(CC(=O)O)S(=O)(=O)c3ccc(OC)cc3)c3ccccc23)cc1 [Compound A1, 2,2′-(isoquinoline-1,4-diylbis(((4-methoxyphenyl)sulfonyl)azanediyl))diacetic acid] | – | – | logD [2]: −1.5 |
| COc1ccc(S(=O)(=O)N(CC(F)(F)F)c2cnc(N(CC(=O)O)S(=O)(=O)c3ccc(OC)cc3)c3ccccc23)cc1 [Compound B0, N-(4-((4-methoxy-N-(2,2,2-trifluoroethyl)phenyl)sulfonamido)isoquinolin-1-yl)-N-((4-methoxyphenyl)sulfonyl)glycine] | – | – | logD at 1 h [2]: 0.5 |
| COc1ccc(S(=O)(=O)Nc2cnc(N3CCC[C@@H]3C(=O)O)c3ccccc23)cc1 [Compound C5, (4-((4-methoxyphenyl)sulfonamido)isoquinolin-1-yl)-D-proline] | > 25 µM | > 25 µM | – |

Continued by falling IC50 (Kelch domain of KEAP1; [4]), values first:

| IC50 (Kelch domain of KEAP1; [4]) | IC50 (Kelch domain of KEAP1; Table C, unit inferred) | Compound | other results |
| --- | --- | --- | --- |
| 5 µM | 5 µM | COc1ccc(S(=O)(=O)Nc2cnc(N3CCC[C@H]3C(=O)O)c3ccccc23)cc1 [Compound C6, (4-((4-methoxyphenyl)sulfonamido)isoquinolin-1-yl)-L-proline] | – |
| 2 µM | – | COc1ccc(S(=O)(=O)N(C)c2ncc(N(CC(=O)O)S(=O)(=O)c3ccc(OC)cc3)c3ccccc23)cc1 [Compound A3, N-(1-((4-methoxy-N-methylphenyl)sulfonamido)isoquinolin-4-yl)-N-((4-methoxyphenyl)sulfonyl)glycine] | metabolic stability [1]: significantly more metabolically stable; logD at 1 h [2]: 0 |
| 1.23 µM | – | [2H]C([2H])([2H])N(c1cnc(N(CC(=O)O)S(=O)(=O)c2ccc(OC)cc2)c2ccccc12)S(=O)(=O)c1ccc(OC)cc1 [Compound A9, N-(4-((4-methoxy-N-(methyl-d3)phenyl)sulfonamido)isoquinolin-1-yl)-N-((4-methoxyphenyl)sulfonyl)glycine] | metabolic stability [1]: degraded substantially; binding affinity (in words) (Kelch domain of KEAP1): significantly diminished the binding affinity |
| 1.2 µM | – | COc1ccc(S(=O)(=O)Nc2ncc(N(CC(=O)O)S(=O)(=O)c3ccc(OC)cc3)c3ccccc23)cc1 [Compound A2, N-(1-((4-methoxyphenyl)sulfonamido)isoquinolin-4-yl)-N-((4-methoxyphenyl)sulfonyl)glycine] | logD at 1 h [2]: -0.5 |
| 1.1 µM | – | COc1ccc(S(=O)(=O)N(C)c2cnc(N(CC(=O)O)S(=O)(=O)c3ccc(OC)cc3)c3ccccc23)cc1 [Compound A8, N-(4-((4-methoxy-N-methylphenyl)sulfonamido)isoquinolin-1-yl)-N-((4-methoxyphenyl)sulfonyl)glycine] | metabolic stability [1]: degraded substantially; binding affinity (in words) (Kelch domain of KEAP1): significantly diminished the binding affinity; logD at 1 h [2]: 0 |
| 0.53 µM | – | O=C(O)CN(c1cnc(N(CC(=O)O)S(=O)(=O)c2ccc(O)cc2)c2ccccc12)S(=O)(=O)c1ccc(O)cc1 [Compound A4, 2,2′-(isoquinoline-1,4-diylbis(((4-hydroxyphenyl)sulfonyl)azanediyl))diacetic acid] | binding affinity (in words) (Kelch domain of KEAP1): high binding affinities |
| 0.35 µM | – | O=C(O)CN(c1cnc(N(CC(=O)O)S(=O)(=O)c2ccc(F)cc2)c2ccccc12)S(=O)(=O)c1ccc(F)cc1 [Compound A5, 2,2′-(isoquinoline-1,4-diylbis(((4-fluorophenyl)sulfonyl)azanediyl))diacetic acid] | binding affinity (in words) (Kelch domain of KEAP1): high binding affinities |
| 0.212 µM | – | COc1ccc(S(=O)(=O)Nc2cnc(N(CC(=O)O)S(=O)(=O)c3ccc(OC)cc3)c3ccccc23)cc1 [Compound A6, N-(4-((4-methoxyphenyl)sulfonamido)isoquinolin-1-yl)-N-((4-methoxyphenyl)sulfonyl)glycine] | levels of NQO1 [3]: increase the levels of NQO1; metabolic stability [1]: degraded substantially; logD [2]: −1.6; stabilization of NRF2 expression (NRF2): stabilize NRF2 expression |
